Legend:
Assay type in all cases: biochemical
[1] = target: T1, HDAC1 enzyme (Homo sapiens, UniProt Q13547); assay: HDAC1 enzyme inhibitory assay (HDAC-Glo I/II Assay kit); settings: wells without enzyme = 100% inhibition; for inhibition at 1 µM: read-out: HDAC1 inhibitory rate (%) (1 μM)
T1 construct: transducing full length HDAC1 and HDAC6 genes into Sf-9 insect cells; GST; purchased SignalChem; host or cells: Sf-9 insect cells
Experimental: (§1) HDAC1/6 Enzyme Inhibitory Assay
(§2) HDAC1 enzyme and HDAC6 enzyme each prepared by transducing full length HDAC1 and HDAC6 genes into Sf-9 insect cells and purifying by GST affinity column were purchased from SignalChem. Using these enzymes, HDAC1 and/or HDAC6 enzyme inhibitory activities of the compound of the present invention were evaluated. Enzymes were used after preserved at −70° C. HDAC1 or HDAC6 enzyme inhibitory activity of the compound of the present invention was measured using HDAC-Glo™ I/II Assay kit (Promega) according to the following experimental method. The test compound diluted with assay buffer (24 mM Tris-HCl (pH 7.5), 1 mM MgCl2, 0.35 mM KCl, 135 mM NaCl, 0.6 mM Glutathione, 0.01% Tween-20) was added to a 384-well plate by each 2 μL. Then, HDAC1 or HDAC6 enzyme solution diluted with assay buffer was added thereto by each 4 μL, and the plate was incubated at room temperature for 60 min. After incubated, HDAC substrate-Developer solution prepared according to Promega protocol attached to the assay kit was added to the 384-well plate by each 2 μL, and the enzyme reaction was started. After reacting at room temperature for 20 min, luminescence level was measured using plate reader Envision (PerkinElmer). The inhibitory activity of each compound was calculated as a relative activity value when luminescence level in wells without enzyme is considered as 100% inhibition.

[2] = target: T2, HDAC9 enzyme (Homo sapiens, UniProt Q9UKV0); assay: HDAC9 enzyme inhibitory assay (HDAC-Glo class IIa); settings: wells without enzyme = 100% inhibition; for inhibition at 1 µM: read-out: HDAC9 inhibitory rate (%) (1 μM)
T2 construct: transducing full length HDAC9 gene into Sf-9 insect cells; made in house; host or cells: Sf-9 insect cells
T2 sequence (Q9UKV0 whole entry, species assumed): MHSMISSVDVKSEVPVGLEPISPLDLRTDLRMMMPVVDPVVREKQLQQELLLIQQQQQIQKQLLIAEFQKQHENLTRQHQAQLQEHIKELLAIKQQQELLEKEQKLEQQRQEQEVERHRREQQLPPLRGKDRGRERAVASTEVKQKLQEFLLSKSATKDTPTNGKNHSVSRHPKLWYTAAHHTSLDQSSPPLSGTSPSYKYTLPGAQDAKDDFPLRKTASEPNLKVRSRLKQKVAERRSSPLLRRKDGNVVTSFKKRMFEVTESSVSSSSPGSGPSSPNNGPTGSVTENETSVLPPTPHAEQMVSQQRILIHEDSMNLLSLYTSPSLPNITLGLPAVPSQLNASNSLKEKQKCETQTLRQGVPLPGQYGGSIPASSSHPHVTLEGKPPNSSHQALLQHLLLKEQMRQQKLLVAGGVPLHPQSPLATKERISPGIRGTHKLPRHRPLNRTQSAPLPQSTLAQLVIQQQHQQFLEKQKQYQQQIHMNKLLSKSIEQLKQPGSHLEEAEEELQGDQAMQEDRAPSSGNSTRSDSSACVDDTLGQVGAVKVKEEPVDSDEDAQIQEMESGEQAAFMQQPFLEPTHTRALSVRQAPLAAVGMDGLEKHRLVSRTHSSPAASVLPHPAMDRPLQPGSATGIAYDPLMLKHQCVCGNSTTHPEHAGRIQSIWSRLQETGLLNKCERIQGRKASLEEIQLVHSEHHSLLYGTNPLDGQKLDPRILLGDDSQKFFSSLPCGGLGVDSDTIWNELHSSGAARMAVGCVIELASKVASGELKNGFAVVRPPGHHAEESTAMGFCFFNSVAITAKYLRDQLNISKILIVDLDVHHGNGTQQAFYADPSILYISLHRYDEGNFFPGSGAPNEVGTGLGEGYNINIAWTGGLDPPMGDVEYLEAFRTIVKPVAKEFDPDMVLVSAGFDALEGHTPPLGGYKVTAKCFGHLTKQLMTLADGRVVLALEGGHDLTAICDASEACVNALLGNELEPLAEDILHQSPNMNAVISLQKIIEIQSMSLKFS
Experimental: HDAC9 Enzyme Inhibitory Assay
Enzyme was prepared by transducing full length HDAC9 gene into Sf-9 insect cells and purifying by Ni-NTA affinity column, and HDAC9 enzyme inhibitory activity was evaluated. Enzymes were used after preserved at −70° C. HDAC9 enzyme inhibitory activity of the test compound was measured using HDAC-Glo class IIa (Promega) according to the following experimental method. The test compound diluted with assay buffer (24 mM Tris-HCl (pH 7.5), 1 mM MgCl2, 0.35 mM KCl, 135 mM NaCl, 0.6 mM Glutathione, 0.01% Tween-20) was added to a 384-well plate by each 2 μL. Then, HDAC9 enzyme solution diluted with assay buffer was added thereto by each 2 μL, and the plate was incubated at room temperature for 60 min. After incubated, HDAC substrate-Developer solution prepared according to Promega protocol was added to the 384-well plate by each 4 μL, and the enzyme reaction was started. After reacting at room temperature for 20 min, luminescence level was measured using plate reader Envision (PerkinElmer). The inhibitory activity of each compound was calculated as a relative activity value when luminescence level in wells without enzyme is considered as 100% inhibition.

[3] = target: T3, HDAC6 enzyme (Homo sapiens, UniProt Q9UBN7); assay: HDAC6 enzyme inhibitory assay (HDAC-Glo I/II Assay kit); settings: wells without enzyme = 100% inhibition; for inhibition at 1 µM: read-out: HDAC6 inhibitory rate (%) (1 μM)
T3 construct: transducing full length HDAC1 and HDAC6 genes into Sf-9 insect cells; GST; purchased SignalChem; host or cells: Sf-9 insect cells
T3 sequence (Q9UBN7 1-1215): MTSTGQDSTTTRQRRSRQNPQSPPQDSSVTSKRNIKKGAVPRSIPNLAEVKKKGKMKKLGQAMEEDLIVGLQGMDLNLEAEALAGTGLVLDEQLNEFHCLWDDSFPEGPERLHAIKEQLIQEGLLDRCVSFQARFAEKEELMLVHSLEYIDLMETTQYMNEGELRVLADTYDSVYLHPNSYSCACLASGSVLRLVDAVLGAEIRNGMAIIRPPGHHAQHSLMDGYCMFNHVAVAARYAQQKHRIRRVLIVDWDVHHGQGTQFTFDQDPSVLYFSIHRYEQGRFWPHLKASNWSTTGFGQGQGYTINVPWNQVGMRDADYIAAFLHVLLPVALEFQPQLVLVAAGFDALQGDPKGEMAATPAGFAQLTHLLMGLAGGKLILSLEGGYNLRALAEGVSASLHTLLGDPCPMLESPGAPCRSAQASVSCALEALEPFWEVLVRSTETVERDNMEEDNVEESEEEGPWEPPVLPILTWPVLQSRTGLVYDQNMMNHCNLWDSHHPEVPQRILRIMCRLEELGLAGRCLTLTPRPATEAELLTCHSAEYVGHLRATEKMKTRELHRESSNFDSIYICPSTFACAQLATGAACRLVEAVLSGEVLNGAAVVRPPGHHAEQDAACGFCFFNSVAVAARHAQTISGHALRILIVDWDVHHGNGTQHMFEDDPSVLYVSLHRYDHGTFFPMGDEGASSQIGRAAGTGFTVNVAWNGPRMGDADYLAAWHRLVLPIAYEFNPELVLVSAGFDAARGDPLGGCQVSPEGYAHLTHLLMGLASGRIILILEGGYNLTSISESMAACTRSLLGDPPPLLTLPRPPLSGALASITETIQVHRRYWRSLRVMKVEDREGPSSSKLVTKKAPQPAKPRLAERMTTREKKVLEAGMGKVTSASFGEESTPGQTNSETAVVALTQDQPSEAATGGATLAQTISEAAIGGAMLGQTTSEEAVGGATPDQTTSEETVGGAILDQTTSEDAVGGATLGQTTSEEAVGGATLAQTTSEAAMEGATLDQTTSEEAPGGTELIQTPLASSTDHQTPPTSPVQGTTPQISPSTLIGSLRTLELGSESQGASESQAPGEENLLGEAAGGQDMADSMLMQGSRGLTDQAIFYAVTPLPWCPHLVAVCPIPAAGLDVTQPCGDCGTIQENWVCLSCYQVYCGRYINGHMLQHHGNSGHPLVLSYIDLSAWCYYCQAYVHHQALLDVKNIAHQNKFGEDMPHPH
Experimental: as §1, §2

T1 sequence (Q13547 whole entry): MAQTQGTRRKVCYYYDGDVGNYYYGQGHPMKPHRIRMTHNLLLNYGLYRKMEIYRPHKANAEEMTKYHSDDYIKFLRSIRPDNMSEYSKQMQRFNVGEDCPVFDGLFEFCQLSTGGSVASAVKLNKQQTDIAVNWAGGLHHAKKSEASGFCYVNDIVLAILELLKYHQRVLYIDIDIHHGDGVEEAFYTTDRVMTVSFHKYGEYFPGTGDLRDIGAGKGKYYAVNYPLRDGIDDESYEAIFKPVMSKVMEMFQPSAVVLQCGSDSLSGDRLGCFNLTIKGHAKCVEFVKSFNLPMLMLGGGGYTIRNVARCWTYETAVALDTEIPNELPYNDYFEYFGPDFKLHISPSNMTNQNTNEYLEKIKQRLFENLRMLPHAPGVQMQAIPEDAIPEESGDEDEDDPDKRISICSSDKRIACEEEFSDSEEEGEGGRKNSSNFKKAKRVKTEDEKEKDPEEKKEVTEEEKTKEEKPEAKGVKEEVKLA

Compound | inhibition at 1 µM [1] | inhibition at 1 µM [2] | inhibition at 1 µM [3] | HDAC1 inhibitory rate (%) (1 μM) [1] | HDAC9 inhibitory rate (%) (1 μM) [2] | HDAC6 inhibitory rate (%) (1 μM) [3]
O=C(NCC1CCCCN1C(=O)Nc1ccc(-c2noc(C(F)(F)F)n2)cc1)c1ccc(O)cc1 (stereo not drawn) [Example 27, 2-(((4-hydroxybenzoyl)amino)methyl)-N-(4-(5-(trifluoromethyl)-1,2,4-oxadiazol-3-yl)phenyl)piperidine-1-carboxamide] | 37% | 93% | 3% | – | – | –
O=C(NCC1COCCN1C(=O)Nc1ccc(-c2noc(C(F)(F)F)n2)cc1)c1ccccc1 (stereo not drawn) [Example 1, 3-((benzoylamino)methyl)-N-(4-(5-(trifluoromethyl)-1,2,4-oxadiazol-3-yl)phenyl)morpholine-4-carboxamide] | 62% | 98% | 6% | – | – | –
Cc1cccc(C(=O)NCC2CCCCN2C(=O)Nc2ccc(-c3noc(C(F)(F)F)n3)cc2)c1 (stereo not drawn) [Example 11, 2-(((3-methylbenzoyl)amino)methyl)-N-(4-(5-(trifluoromethyl)-1,2,4-oxadiazol-3-yl)phenyl)piperidine-1-carboxamide] | 20% | 90% | 5% | – | – | –
CN(C)c1ccc(C(=O)NCC2CCCCN2C(=O)Nc2ccc(-c3noc(C(F)(F)F)n3)cc2)cc1 (stereo not drawn) [Example 29, 2-(((4-(dimethylamino)benzoyl)amino)methyl)-N-(4-(5-(trifluoromethyl)-1,2,4-oxadiazol-3-yl)phenyl)piperidine-1-carboxamide] | 1% | 88% | 1% | – | – | –
O=C(NCC1CCCCN1C(=O)Nc1ccc(-c2noc(C(F)(F)F)n2)cc1)c1ccc(Cl)cc1Cl (stereo not drawn) [Example 31] | – | – | – | −12% | 38% | −1%
O=C(NCC1CCCCN1C(=O)Nc1ccc(-c2noc(C(F)(F)F)n2)cc1)c1cc(Cl)cc(Cl)c1 (stereo not drawn) [Example 33, 2-(((3,5-dichlorobenzoyl)amino)methyl)-N-(4-(5-(trifluoromethyl)-1,2,4-oxadiazol-3-yl)phenyl)piperidine-1-carboxamide] | -5% | 48% | 0% | – | – | –
CC(=O)N1CCC(C(=O)NCC2CCCCN2C(=O)Nc2ccc(-c3noc(C(F)(F)F)n3)cc2)CC1 (stereo not drawn) [Example 53, 2-((((1-acettylpiperidin-4-yl)carbonyl)amino)methyl)-N-(4-(5-(trifluoromethyl)-1,2,4-oxadiazol-3-yl)phenyl)piperidine-1-carboxamide] | – | – | – | 32% | 94% | 7%
O=C(NCC1CCCCN1C(=O)Nc1ccc(-c2noc(C(F)(F)F)n2)cc1)c1ccccn1 (stereo not drawn) [Example 34, N-((1-((4-(5-(trifluoromethyl)-1,2,4-oxadiazol-3-yl)phenyl)carbamoyl)piperidin-2-yl)methyl)pyridine-2-carboxamide] | 28% | 84% | 4% | – | – | –
O=C(NCC1CCCCN1C(=O)Nc1ccc(-c2noc(C(F)(F)F)n2)cc1)C1CCCCC1 (stereo not drawn) [Example 50] | – | – | – | 79% | 95% | 7%

Further lines, with some results ahead:

inhibition at 1 µM [1] | inhibition at 1 µM [2] | inhibition at 1 µM [3] | Compound | HDAC1 inhibitory rate (%) (1 μM) [1] | HDAC9 inhibitory rate (%) (1 μM) [2] | HDAC6 inhibitory rate (%) (1 μM) [3]
11% | 76% | 3% | Cn1cnc(C(=O)NCC2CCCCN2C(=O)Nc2ccc(-c3noc(C(F)(F)F)n3)cc2)c1 (stereo not drawn) [Example 40, 2-((((1-methyl-1H-imidazol-4-yl)carbonyl)amino)methyl)-N-(4-(5-(trifluoromethyl)-1,2,4-oxadiazol-3-yl)phenyl)piperidine-1-carboxamide] | – | – | –
20% | 72% | 1% | O=C(NCC1CCCCN1C(=O)Nc1ccc(-c2noc(C(F)(F)F)n2)cc1)c1csc(C(F)(F)F)n1 (stereo not drawn) [Example 60, N-(4-(5-(trifluoromethyl)-1,2,4-oxadiazol-3-yl)phenyl)-2-((((2-(trifluoromethyl)-1,3-thiazol-4-yl)carbonyl)amino)methyl)piperidine-1-carboxamide] | – | – | –
17% | 89% | 6% | O=C(NCC1CCCCN1C(=O)Nc1ccc(-c2noc(C(F)(F)F)n2)cc1)Nc1ccccc1 (stereo not drawn) [Example 54, 2-(((phenylcarbamoyl)amino)methyl)-N-(4-(5-(trifluoromethyl)-1,2,4-oxadiazol-3-yl)phenyl)piperidine-1-carboxamide] | – | – | –
3% | 79% | 1% | O=C(NCC1CCCCN1C(=O)Nc1ccc(-c2noc(C(F)(F)F)n2)cc1)c1cc2ccccc2o1 (stereo not drawn) [Example 44, 2-(((1-benzofuran-2-ylcarbonyl)amino)methyl)-N-(4-(5-(trifluoromethyl)-1,2,4-oxadiazol-3-yl)phenyl)piperidine-1-carboxamide] | – | – | –
62% | 98% | 8% | Cn1nccc1C(=O)NCC1COCCN1C(=O)Nc1ccc(-c2noc(C(F)(F)F)n2)cc1 (stereo not drawn) [Example 61, 3-((((1-methyl-1H-pyrazol-5-yl)carbonyl)amino)methyl)-N-(4-(5-(trifluoromethyl)-1,2,4-oxadiazol-3-yl)phenyl)morpholine-4-carboxamide] | – | – | –
38% | 94% | 6% | Cc1cc(C(=O)NCC2CCCCN2C(=O)Nc2ccc(-c3noc(C(F)(F)F)n3)cc2)ccn1 (stereo not drawn) [Example 57, 2-methyl-N-((1-((4-(5-(trifluoromethyl)-1,2,4-oxadiazol-3-yl)phenyl)carbamoyl)piperidin-2-yl)methyl)isonicotinamide] | – | – | –
59% | 98% | 7% | Cn1nccc1C(=O)NCC1CCCCN1C(=O)Nc1ccc(-c2noc(C(F)(F)F)n2)cc1 (stereo not drawn) [Example 41, 2-((((1-methyl-1H-pyrazol-5-yl)carbonyl)amino)methyl)-N-(4-(5-(trifluoromethyl)-1,2,4-oxadiazol-3-yl)phenyl)piperidine-1-carboxamide] | – | – | –
58% | 96% | 4% | O=C(NCC1CCCCN1C(=O)Nc1ccc(-c2noc(C(F)(F)F)n2)cc1)c1cccnc1 (stereo not drawn) [Example 35, N-((1-((4-(5-(trifluoromethyl)-1,2,4-oxadiazol-3-yl)phenyl)carbamoyl)piperidin-2-yl)methyl)nicotinamide] | – | – | –

Reference: patent US10406146B2, “Heterocyclic compound” (TAKEDA PHARMACEUTICAL COMPANY LIMITED, priority 2015, dated 2019)
